Measurements as given in ChEMBL document CHEMBL1124224, “Synthetic polyamine analogues as antineoplastics” (J Med Chem, 1988).
“And” between values parts separate entries of the source, which are not always exact repeats. Identical values can stand only once.

Experiments:
L1210 [1] = test: Tested for inhibition of L1210 cell growth by the compound after 96 hr; type: functional, cell-based; settings: Mus musculus, L1210, 96 h
L1210 [2] = test: Tested for inhibition of L1210 cell growth by the compound at a dose of 30 uM and after 48 hr; type: functional; settings: Mus musculus, L1210, 48 h
L1210 [3] = test: Tested for inhibition of L1210 cell growth by the compound after 48 hr; type: functional, cell-based; settings: Mus musculus, L1210, 48 h
L1210 [4] = test: Tested for inhibition of L1210 cell growth by the compound at a dose of 50 uM and after 48 hr; type: functional; settings: Mus musculus, L1210, 48 h
L1210 [5] = test: Tested for L1210 cell growth as percent of control by the compound at a dose of 100 uM and after 48 hr; settings: Mus musculus, L1210, 48 h
L1210 [6] = test: Tested for inhibition of L1210 cell growth by the compound at a dose of 30 uM and after 96 hr; type: functional; settings: Mus musculus, L1210, 96 h
L1210 [7] = test: Tested for inhibition of L1210 cell growth by the compound at a dose of 25 uM and after 96 hr; No inhibition at 25 uM; type: functional, cell-based; settings: Mus musculus
L1210 [8] = test: Tested for inhibition of L1210 cell growth by the compound at a dose of 25 uM and after 48 hr; No inhibition at 25 uM; type: functional, cell-based; settings: Mus musculus
L1210 [9] = test: Tested for inhibition of L1210 cell growth by the compound at a dose of >12.5 uM and after 96 hr; settings: Mus musculus
L1210 [10] = test: Tested for inhibition of L1210 cell growth by the compound at a dose of >12.5 uM and after 48 hr; settings: Mus musculus
L1210 [11] = test: Tested for inhibition of L1210 cell growth by the compound at a dose of 50 uM and after 96 hr; No inhibition at 50 uM; type: functional, cell-based; settings: Mus musculus
L1210 [12] = test: Tested for inhibition of L1210 cell growth by the compound at a dose of 50 uM and after 48 hr; No inhibition at 50 uM; type: functional, cell-based; settings: Mus musculus
[13] = Ratio of survivors to the total mice in the test group; 9/16; type: functional
[14] = Ratio of survivors to the total mice in the test group; 0/6; type: functional
L1210 [15] = test: Percent of clonogenic L1210 cells to relative to control was determined after the treatment with the compound of 10 uM was for 24 hr; type: functional, Mus musculus
Mus musculus [16] = test: Mean survival of L1210 leukemic mice was evaluated on day 60 at 15 mg/kg by ip administration (schedule: Q8H,1-6days); type: functional; settings: route intraperitoneal
[17] = Ratio of survivors to the total mice in the test group; 0/10; type: functional
[18] = Ratio of survivors to the total mice in the test group; 0/4; type: functional
HL-60 [19] = test: Inhibitory concentration against growth of cultured HL-60 cells at 72 hrs.; type: functional, cell-based; settings: Homo sapiens, HL-60, 72 h
[20] = Ratio of survivors to the total mice in the test group; 0/8; type: functional
Mus musculus [21] = test: % increase in life span in L1210 leukemic mice was calculated at 20 mg/kg by ip administration; type: functional; settings: route intraperitoneal
[22] = Ratio of survivors to the total mice in the test group; 0/47; type: functional
[23] = Inhibitory concentration against growth of cultured […] cells at 72 hrs.; type: functional; settings: Homo sapiens
Mus musculus [24] = test: % increase in life span in L1210 leukemic mice was calculated at 10 mg/kg by ip administration; type: functional; settings: route intraperitoneal
L1210 [25] = test: Percent of clonogenic L1210 cells to relative to control was determined after the treatment with the compound of 10 uM was for 48 hr; type: functional, Mus musculus
Mus musculus [26] = test: Mean survival of mice with L1210 leukemia was evaluated on day 60 at 20 mg/kg by ip administration (schedule: Q8H,1-3days); type: functional; settings: route intraperitoneal
Mus musculus [27] = test: % increase in life span in mice was calculated at 15 mg/kg by ip administration; type: functional; settings: route intraperitoneal
Mus musculus [28] = test: Mean survival of mice with L1210 leukemia was evaluated on day 60 at 20 mg/kg by ip administration (schedule: Q8H,1-4days); type: functional; settings: route intraperitoneal
Mus musculus [29] = organism: Mus musculus; test: Ratio of survivors to the total mice in the test group; 0/13; type: functional
L1210 [30] = test: Percent of clonogenic L1210 cells to relative to control was determined after the treatment with the compound of 10 uM was for 96h; type: functional, Mus musculus
Mus musculus [31] = test: % increase in life span in L1210 leukemic mice was calculated at 15 mg/kg by ip administration; type: functional; settings: route intraperitoneal
Mus musculus [32] = test: Mean survival of mice with L1210 leukemia on day 60 at 5 mg/kg by ip administration (schedule: Q8H,1-6days); type: functional; settings: route intraperitoneal
L1210 [33] = test: Percent of clonogenic L1210 cells to relative to control was determined after the treatment with the compound of 10 uM was for 72 hr; type: functional, Mus musculus
Mus musculus [34] = test: Mean survival of mice with L1210 leukemia was evaluated on day 60 at 10 mg/kg by ip administration (schedule: Q8H,1-6days); type: functional; settings: route intraperitoneal
Mus musculus [35] = test: % increase in life span in L1210 leukemic mice was calculated at 17.5 mg/kg by ip administration; type: functional; settings: route intraperitoneal
Mus musculus [36] = test: Mean survival of mice with 10e 5 L1210 cells was evaluated on day 60 at 15 mg/kg by ip administration (schedule: Q12H,1-6days); type: functional; settings: route intraperitoneal
[37] = Inhibitory concentration against growth of cultured […] cells at 144 hrs.; type: functional; settings: Homo sapiens
[38] = Ratio of survivors to the total mice in the test group; 4/8; type: functional
HL-60 [39] = test: Inhibitory concentration against growth of cultured HL-60 cells at 144 hrs.; type: functional, cell-based; settings: Homo sapiens, HL-60, 144 h
Mus musculus [40] = test: % increase in life span in mice was calculated at 5 mg/kg by ip administration; type: functional; settings: route intraperitoneal
Mus musculus [41] = test: Mean survival of mice with L1210 leukemia was evaluated on day 60 at 17.5 mg/kg by ip administration (schedule: Q8H,1-6days); type: functional; settings: route intraperitoneal
Mus musculus [42] = organism: Mus musculus; test: Mean survival of mice with L1210 leukemia was evaluated on day 60 with no treatment; type: functional

**Q.** Which IC50 (L1210 [1]) does the source give for `CCNCCCCNCCCNCC` here?
**A.** 10000 nM

**Q.** What about the inhibition at 30 µM (L1210 [2]) of the same compound?
**A.** 61%

**Q.** What does the source list for `CCNCCCNCCCNCCCCNCCCNCCCNCC`?
**A.** IC50 (L1210 [3]): 50000 nM; IC50 (L1210 [1]): 500 nM

**Q.** Which results are given for `CCCNCCCNCCCCNCCCNCCC`?
**A.** IC50 (L1210 [3]): 3000 nM; IC50 (L1210 [1]): 200 nM

**Q.** Which IC50 (L1210 [1]) does the source give for `CCN(CC)CCCNCCCCNCCCN(CC)CC` here?
**A.** 5000 nM

**Q.** What about the inhibition at 50 µM (L1210 [4]) of the same compound?
**A.** 80%

**Q.** What does the source list for `CCNCCCN(CC)CCCCN(CC)CCCNCC`?
**A.** IC50 (L1210 [3]): 100000 nM; IC50 (L1210 [1]): 3000 nM

**Q.** Which IC50 (L1210 [1]) does the source give for `CNCCCNCCCCNCCCNC` here?
**A.** 750 nM

**Q.** And the control growth at 100 µM (L1210 [5])?
**A.** 60%

**Q.** With `CCCNCCCCNCCCNCCC` as the compound, how does the inhibition at 30 µM (L1210 [2]) read?
**A.** 88%

**Q.** And the inhibition at 30 µM (L1210 [6])?
**A.** 83%

**Q.** With `CCN(CCCN)CCCCN(CC)CCCN` as the compound, how does the inhibition (L1210 [7]) read?
**A.** No inhibition

**Q.** What about the inhibition (L1210 [8]) of the same compound?
**A.** No inhibition

**Q.** With `CCNCCCCCCCCCCCCNCC` as the compound, how does the inhibition (L1210 [9]) read?
**A.** No inhibition

**Q.** What about the inhibition (L1210 [10]) of the same compound?
**A.** No inhibition

**Q.** Which inhibition (L1210 [11]) does the source give for `CCNCCCN1CCN(CCCNCC)CC1` here?
**A.** No inhibition

**Q.** What about the inhibition (L1210 [12]) of the same compound?
**A.** No inhibition

**Q.** Which S/T [13] does the source give for `CCNCCCNCCCCNCCCNCC` [BIS(ETHYL)SPERMINE] here?
**A.** 0.562

**Q.** And the S/T [14]?
**A.** 0

**Q.** What about the Clones (L1210 [15]) of the same compound?
**A.** 100%

**Q.** And the Mean survival (Mus musculus [16])?
**A.** 46.6 days

**Q.** And the S/T [17]?
**A.** 0

**Q.** What about the S/T [18] of the same compound?
**A.** 0

**Q.** And the IC50 (HL-60 [19])?
**A.** 10000 nM

**Q.** What about the IC50 (L1210 [3]) of the same compound?
**A.** 10000 nM

**Q.** What about the S/T [20] of the same compound?
**A.** 0

**Q.** And the ILS (Mus musculus [21])?
**A.** 57% and 103%

**Q.** What about the S/T [22] of the same compound?
**A.** 0

**Q.** And the IC50 [23]?
**A.** > 40000 nM

**Q.** And the ILS at 10 mg/kg (Mus musculus [24])?
**A.** 264%

**Q.** And the IC50 (L1210 [1])?
**A.** 100 nM

**Q.** And the Clones (L1210 [25])?
**A.** 75%

**Q.** And the Mean survival (Mus musculus [26])?
**A.** 14 days

**Q.** And the ILS at 15 mg/kg (Mus musculus [27])?
**A.** 376%

**Q.** What about the Mean survival (Mus musculus [28]) of the same compound?
**A.** 18.1 days

**Q.** And the S/T (Mus musculus [29])?
**A.** 0

**Q.** What about the Clones (L1210 [30]) of the same compound?
**A.** 2%

**Q.** And the ILS at 15 mg/kg (Mus musculus [31])?
**A.** 55%

**Q.** And the Mean survival (Mus musculus [32])?
**A.** 12.3 days

**Q.** And the Clones (L1210 [33])?
**A.** 21%

**Q.** And the Mean survival (Mus musculus [34])?
**A.** 35.3 days

**Q.** What about the ILS at 17.5 mg/kg (Mus musculus [35]) of the same compound?
**A.** 439%

**Q.** And the Mean survival (Mus musculus [36])?
**A.** 14.9 days

**Q.** What about the IC50 [37] of the same compound?
**A.** 500 nM

**Q.** What about the S/T [38] of the same compound?
**A.** 0.5

**Q.** What about the IC50 (HL-60 [39]) of the same compound?
**A.** 300 nM

**Q.** What about the ILS at 5 mg/kg (Mus musculus [40]) of the same compound?
**A.** 25%

**Q.** What about the Mean survival (Mus musculus [41]) of the same compound?
**A.** 52.3 days

**Q.** What about the Mean survival (Mus musculus [42]) of the same compound?
**A.** 9.7 days and 8.9 days
